pKd, pKi: −log10 of the molar value. Like-named read-outs stand apart in the source and are kept apart here.
Columns and labels:
[1] = biological target: T1, mouse P–gp (mP–gp) (Mus musculus, UniProt P21447); test: P–gp ATPase activity (vanadate-sensitive, end point Pi release) in native membranes; type: biochemical; conditions: for Kd: read-out: β1, macroscopic binding constant of the first ligand (converted); for Emax: read-out: V1, maximum activation; for Effect on P–gp ATPase activity: native membranes, Figure 1
T1 construct: made in house; host or cells: High-Five insect cells (Invitrogen), recombinant baculovirus; total membrane vesicles
T1 sequence (P21447 whole entry): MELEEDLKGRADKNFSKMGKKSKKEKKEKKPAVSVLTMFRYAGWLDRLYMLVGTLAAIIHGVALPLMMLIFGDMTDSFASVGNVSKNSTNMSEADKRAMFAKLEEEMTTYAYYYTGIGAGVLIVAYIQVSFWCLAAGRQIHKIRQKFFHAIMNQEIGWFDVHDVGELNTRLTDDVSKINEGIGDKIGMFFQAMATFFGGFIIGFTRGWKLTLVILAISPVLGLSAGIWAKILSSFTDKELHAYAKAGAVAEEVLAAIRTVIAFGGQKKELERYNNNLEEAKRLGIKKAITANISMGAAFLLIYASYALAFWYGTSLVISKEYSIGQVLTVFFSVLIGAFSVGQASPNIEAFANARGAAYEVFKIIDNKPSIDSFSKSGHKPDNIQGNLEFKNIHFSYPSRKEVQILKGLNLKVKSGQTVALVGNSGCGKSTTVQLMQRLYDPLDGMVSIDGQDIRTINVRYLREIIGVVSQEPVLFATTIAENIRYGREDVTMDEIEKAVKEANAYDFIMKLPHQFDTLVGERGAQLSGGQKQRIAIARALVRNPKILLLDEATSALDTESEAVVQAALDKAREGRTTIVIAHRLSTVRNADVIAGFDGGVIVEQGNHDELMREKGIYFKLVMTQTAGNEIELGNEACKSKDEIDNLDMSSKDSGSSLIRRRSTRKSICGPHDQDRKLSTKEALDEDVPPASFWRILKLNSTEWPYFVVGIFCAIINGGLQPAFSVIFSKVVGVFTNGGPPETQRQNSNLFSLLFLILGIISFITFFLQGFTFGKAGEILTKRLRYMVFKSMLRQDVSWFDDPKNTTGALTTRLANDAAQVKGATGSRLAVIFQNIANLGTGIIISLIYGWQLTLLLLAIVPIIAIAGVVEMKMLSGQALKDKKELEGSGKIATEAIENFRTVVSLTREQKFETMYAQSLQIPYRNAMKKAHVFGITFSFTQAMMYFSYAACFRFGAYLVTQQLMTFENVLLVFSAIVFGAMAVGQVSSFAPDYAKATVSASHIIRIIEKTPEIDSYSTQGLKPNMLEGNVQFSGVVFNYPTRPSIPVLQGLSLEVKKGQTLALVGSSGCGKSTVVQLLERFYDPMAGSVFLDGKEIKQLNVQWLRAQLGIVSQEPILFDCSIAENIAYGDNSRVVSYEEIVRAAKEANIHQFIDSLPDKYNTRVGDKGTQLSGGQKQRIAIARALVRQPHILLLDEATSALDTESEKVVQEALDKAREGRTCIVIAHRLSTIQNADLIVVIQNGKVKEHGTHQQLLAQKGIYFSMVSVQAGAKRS
Procedure: High-Five insect cells (Invitrogen) were infected with recombinant baculovirus carrying mouse P–gp (mP–gp) gene (Abcb1a). Membrane vesicles were prepared by hypotonic lysis of the insect cells, followed by ultracentrifugation to collect the membrane vesicles, as described in detail in reference. The native membranes obtained were suspended in storage buffer (45 mM Tris-HCl pH 7.5, 45 mM D-mannitol, 1.8 mM EGTA, 0.45% v/v aprotinin, 1.8 mM DTT, 0.9 mM AEBSF, and 10% v/v glycerol), aliquoted, and stored at −80 °C or in liquid nitrogen until use. The concentration of protein in the native membranes was quantified by the Sherman and Weismann method using Amido Black B dye.
The ATPase activity of P–gp in the High-Five insect cell membranes was measured by the end point Pi release assays, as described earlier with minor modifications. Native membranes were diluted in ATPase assay buffer (final concentrations: 41.2 mM Tris-MES pH = 6.8, 50 mM KCl, 5 mM NaN3, 2 mM EGTA, 1.03 mM Ouabain, 2 mM DTT, and 10 mM MgCl2), and the modulators were added from stocks in DMSO (final DMSO 1% v/v). The final concentration of protein was quantified, being ca. 0.1 mg/mL. Four samples were prepared at each modulator concentration, containing ATP at 5 mM, two of which also contained vanadate at 0.3 mM. P–gp specific activity was measured as vanadate-sensitive ATPase activity. The basal rate of ATP hydrolysis was 67 ± 4 nmol Pi mgP^−1 min^−1, with 37 ± 4 nmol Pi mgP^−1 min^−1 being sensitive to vanadate. The results obtained for the effect of the modulators on the ATPase activity in the presence and absence of vanadate are shown in the Supplementary Information (Figure S1).
The results were then analyzed with the formalism derived in this manuscript considering the distribution of the modulator in the distinct environments (aqueous phase, lipid bilayer and P-gp) and several equal and independent binding sites in P-gp’s binding pocket, Equations (3)–(9). The best fit was obtained with nonlinear least-square analysis using Microsoft Excel.
For the correct analysis of the results, the distribution of the amphiphiles in the distinct environments (aqueous media, lipid bilayer, and P–gp) must be considered. In addition, excess ligand should not be assumed. When considering that P–gp has several binding sites, the kinetic scheme that describes P–gp saturation with ligand is given by Equation (5). For details, see, e.g., references. (5) LW↔KPW→LbLLb LLb=KPW→LbLW VLb/VWLW+P↔β1PL1 PL1=β1PLWi LW+P↔βiPLi PLi=βiPLW^i n LW+P↔βnPLn PLn=βnPLW^n
The overall ATPase activity at each ligand concentration is calculated from the concentration of each protein species PLi and the corresponding ATPase activity Vi , (9) V=V0+∑i=1nPLi Vi
This formalism was used to describe the effect of the NBD amphiphiles on P–gp’s ATPase activity, considering a distinct ATPase activity for P–gp with a different number of amphiphile molecules in the binding pocket.

[2] = biological target: T2, mP–gp (Mus musculus, UniProt P21447); test: Photolabeling of P–gp with [125I]-IAAP / IAAP displacement; type: binding; conditions: for pKi: Equation (S2), total concentrations, native membranes 1.0 mg/mL, read-out: dissociation constant, competitive inhibition of IAAP binding
T2 construct: made in house; host or cells: High-Five insect cells (Invitrogen), recombinant baculovirus; total membrane vesicles
T2 sequence (P21447 whole entry): as above
Procedure: The native membranes of High-Five insect cells expressing mP–gp (1.0 mg/mL) were incubated at room temperature with the indicated concentrations of the inhibitor for 5 min. IAAP (5 to 7 nM) was later added, and the reaction mixture was further incubated for 5 min under subdued light. The samples were photocross-linked with 366 nm UV light for 10 min at room temperature, followed by electrophoresis and quantification, as described previously. The raw data are shown in the Supplementary Information (Figure S4). The results were first analyzed with the usual equation, considering the total concentration of IAAP and NBD amphiphile, as well as competitive inhibition of IAAP binding, see Supplementary Information (Equation (S2)). The dissociation constant considered for IAAP was taken from the literature, 412 nM [15]. The results were also analyzed with a formalism derived in this manuscript considering the distribution of the NBD amphiphile in the distinct environments (aqueous phase, lipid bilayer, and P–gp), the distribution of IAAP between the aqueous media and P–gp, and several equal and independent binding sites in P–gp’s binding pocket, Equation (10).
In this assay, in addition to the binding of the NBD amphiphiles to P–gp binding pocket, it is also necessary to consider the binding of IAAP. The concentration of IAAP used in the assay (5 nM) is several orders of magnitude smaller than that of the amphiphiles in study, and it is also smaller than the total concentration of P–gp (59 nM). Therefore, Equation (8) may be used to calculate the concentration of free ligand and protein. The fraction of IAAP bound to P–gp may then be calculated from Equation (10), where P^* is the concentration of P–gp available for IAAP binding. (10) IP/IT=−b−b^2−4ac/2aa=1; b=−1+KdIAAP/IT+P^*/IT; c=P^*/IT
The number of binding sites in P–gp binding pocket was varied from 1 to 5, and three situations were considered in the analysis: (i) full inhibition of IAAP binding when at least one NBD amphiphile is in the P–gp binding pocket ( i≥1 ), corresponding to P^*=P; (ii) inhibition of IAAP binding only when P–gp is fully saturated ( i=n ), corresponding to P^*=P+∑i=1n−1PLi; and (iii) an intermediate situation with IAAP displacement for i≥n−1 , corresponding to P^*=P+∑i=1n−2PLi .
The displacement of IAAP from P–gp binding pocket was calculated from Equation (11), where IP0 is the concentration of IAAP bound to P–gp in the absence of the NBD amphiphiles. (11) IAAP displacement %=100IP0−IP/IP0

[3] = Equation (9), local concentrations, n = 1 binding sites, read-out: Kd, microscopic dissociation constant
[4] = Equation (9), local concentrations, n = 2 binding sites, read-out: Kd, microscopic dissociation constant
[5] = Equation (9), local concentrations, n = 3 binding sites, read-out: Kd, microscopic dissociation constant
[6] = Equation (9), local concentrations, n = 4 binding sites, read-out: Kd, microscopic dissociation constant
[7] = Equation (9), local concentrations, n = 5 binding sites, read-out: Kd, microscopic dissociation constant
[8] = Equation (S1), total modulator concentration, no constraint between K1 and K2, [75% confidence interval], read-out: K1, dissociation constant for P–gp activation
[9] = Equation (S1), total modulator concentration, no constraint between K1 and K2, [75% confidence interval], read-out: K2, dissociation constant for P–gp inhibition
[10] = Equation (S1), constraint K1≤K2 for NBD–C8
[11] = Equation (S1), no constraint between K1 and K2, [75% confidence interval]
[12] = Equation (S1), only activation for NBD–C4, constraint K1≤K2 for NBD–C8 and NBD–LysoMPE, [75% confidence interval]
[13] = Equation (S1), total modulator concentration, constraint K1≤K2 for NBD–C8 and NBD–LysoMPE, [75% confidence interval], read-out: K2, dissociation constant for P–gp inhibition
[14] = Equation (S1), no constraint between K1 and K2, [75% confidence interval], listed as NBD-C8

Row | Compound | pKd [1, 3] | pKd [1, 4] | pKd [1, 5] | pKd [1, 6] | pKd [1, 7] | V1, ATPase activity of P–gp with 1 amphiphile bound ([1]; Equation (9), n = 1) [%] | V1, ATPase activity of P–gp with 1 amphiphile bound ([1]; Equation (9), n = 2) [%] | V2, ATPase activity of P–gp with 2 amphiphiles bound ([1]; Equation (9), n = 2) [%] | V1, ATPase activity of P–gp with 1 amphiphile bound ([1]; Equation (9), n = 3) [%] | V2, ATPase activity of P–gp with 2 amphiphiles bound ([1]; Equation (9), n = 3) [%] | V3, ATPase activity of P–gp with 3 amphiphiles bound ([1]; Equation (9), n = 3) [%] | Kd ([1]; Equation (9), n = 3) [µM] | V1, ATPase activity of P–gp with 1 amphiphile bound ([1]; Equation (9), n = 4) [%] | V2, ATPase activity of P–gp with 2 amphiphiles bound ([1]; Equation (9), n = 4) [%] | V3, ATPase activity of P–gp with 3 amphiphiles bound ([1]; Equation (9), n = 4) [%] | V4, ATPase activity of P–gp with 4 amphiphiles bound ([1]; Equation (9), n = 4) [%] | Kd ([1]; Equation (9), n = 4) [µM] | V1, ATPase activity of P–gp with 1 amphiphile bound ([1]; Equation (9), n = 5) [%] | V2, ATPase activity of P–gp with 2 amphiphiles bound ([1]; Equation (9), n = 5) [%] | V3, ATPase activity of P–gp with 3 amphiphiles bound ([1]; Equation (9), n = 5) [%] | also measured
1 | CCCCCCCCCCCCCC(=O)OCC(O)COP(=O)(O)OCCNc1ccc([N+](=O)[O-])c2nonc12 (centres unmarked) [NBD–LysoMPE] | 4.70 | 5.22 | 5.52 | 5.52 | 5.52 | 0 | 122 | 0 | 99 | 146 | 0 | 1.09 | 100 | 100 | 129 | 0 | 0.714 | 100 | 100 | 116 | V4, ATPase activity of P–gp with 4 amphiphiles bound ([1]; Equation (9), n = 5): 97%; V5, ATPase activity of P–gp with 5 amphiphiles bound ([1]; Equation (9), n = 5): 0%; Kd ([1]; Equation (9), n = 5): 0.588 µM; pKd [1, 8]: < 5.30; pKd [1, 9]: ≥ 4.82; V2, residual activity at infinite modulator concentration [1, 10]: 0%; V1, maximal ATPase activation ([1]; Equation (S1), in any case (with or without constraints on K1, K2)): < 126%; V2, residual activity at infinite modulator concentration [1, 11]: 0%; Emax [1, 11]: 102%; Emax [1, 12]: 106%; Effect on P–gp ATPase activity [1]: mostly inhibition; pKi [2]: 4.64
2 | CCCCNc1ccc([N+](=O)[O-])c2nonc12 [NBD–C4] | 4.12 | 4.74 | 4.96 | 5.15 | 5.05 | 703 | 100 | 535 | 109 | 109 | 512 | 3.57 | 110 | 110 | 110 | 501 | 1.85 | 110 | 110 | 110 | V4, ATPase activity of P–gp with 4 amphiphiles bound ([1]; Equation (9), n = 5): 259%; V5, ATPase activity of P–gp with 5 amphiphiles bound ([1]; Equation (9), n = 5): 491%; Kd ([1]; Equation (9), n = 5): 1.82 µM; K2, dissociation constant for P–gp inhibition ([1]; Equation (S1), total modulator concentration, constraint K1≤K2 for NBD–C8 and NBD–LysoMPE, [75% confidence interval]): outside the concentration range studied; pKd [1, 13]: < 4.22; Emax [1, 12]: 734%; Effect on P–gp ATPase activity [1]: activation; pKi [2]: 4.85; number of binding sites n giving agreement between the two estimates of the partition coefficient ([2]; re-analysis of IAAP displacement, IAAP displaced for i ≥ n−1): 5
3 | CCCCCCCCNc1ccc([N+](=O)[O-])c2nonc12 [NBD–C8] | 5.52 | 4.96 | 5.40 | 5.40 | 5.22 | 286 | 388 | 0 | 112 | 403 | 65 | 1.28 | 113 | 260 | 317 | 62 | 1 | 122 | 275 | 253 | Kd ([1]; Equation (9), n = 2): 5.26 µM; V4, ATPase activity of P–gp with 4 amphiphiles bound ([1]; Equation (9), n = 5): 253%; V5, ATPase activity of P–gp with 5 amphiphiles bound ([1]; Equation (9), n = 5): 0%; Kd ([1]; Equation (9), n = 5): 1.16 µM; pKd [1, 13]: 4.54; pKd [1, 8]: 4.77; pKd [1, 9]: 4.54; V2, residual activity at infinite modulator concentration [1, 10]: 0%; V1, maximum activation [1, 14]: 494 [380, 3000] %; V2, residual activity at infinite modulator concentration [1, 14]: 0 [0, 103] %; V2, residual activity at infinite modulator concentration ([1]; Equation (S1), no constraint between K1 and K2, [75% confidence interval], listed as NBD‐C8): 0%; Emax [1, 11]: 497%; V1, maximum activation [1, 12]: 494 % of the basal ATPase activity; V1, maximum activation ([1]; Equation (S1), only activation for NBD–C4, constraint K1≤K2 for NBD–C8 and NBD–LysoMPE, [75% confidence interval], listed as NBD-C8): 494 [380, 598] % of the basal ATPase activity; Emax [1, 12]: 497%; Effect on P–gp ATPase activity [1]: both activation and inhibition; pKi [2]: 5.40

Source: paper PMC9862096, “Interaction of a Homologous Series of Amphiphiles with P-glycoprotein in a Membrane Environment—Contributions of Polar and Non-Polar Interactions” (Pharmaceutics, 2023)
